Measured values: US20260256909A1, “COMBINATION OF A BTN3A ACTIVATING ANTIBODY, A BCL2 INHIBITOR AND HYPOMETHYLATING AGENT FOR USE IN TREATING CANCER” (Imcheck Therapeutics, priority 2022, published 2026)

System: KG1a AML cells
Assay: Killing of KG1a AML cells in co-culture with HD-PBMC (flow cytometry)
Type: cell-based, human
Details: for effect on Vγ9Vδ2 T cell killing activity compared to hIgG1S conditions: upon activation with ICT01, single agent, KG1a co-culture with HD-PBMC
Procedure: A) Sensitivity of KG1a cell line to Venetoclax, 5-Azacytidine or the combination. […] N=2 experiments. B) Mean±SEM relative number of Live KG1a AML cells monitored by flow cytometry after 3 days of co-culture with HD-PBMC (E:T ratio 25:1) treated with ICT01 (black) or its isotype control (hIgG1S, light grey) at 0.1 or 1 μg/mL. N=6, each dot represents one healthy donor. C) Schematic representation of treatment schedule for killing of KG1a AML cells by HD-PBMC. D) Relative number of Live KG1a AML cells (Mean±SEM) (left) and Frequency of Live KG1a AML cell relative to no Venetoclax or 5-Azacytidine treatment (Mean±SEM) (right) after 3 days of co-culture with HD-PBMC in presence of ICT01 (black) or its isotype control (hIgG1S, light grey) and treatment with Venetoclax, 5-Azacytidine or the combination. N=6, each dot represents one healthy donor, * p<0.05, Wilcoxon test.
KG1a cells were co-cultured with HD-PBMC at ratio 5:1 in presence of m20.1 or isotype control (0.1 μg/mL). After 6 hrs, indicated concentrations of Venetoclax, 5-Azacytidine or the combination were added to the culture. Relative number of live KG1a was monitored after 48 hrs by flow cytometry. […] N=6, each dot represents one healthy donor, * p<0.05, ** p<0.01, *** p<0.001, **** p<0.0001, 2 way ANOVA.
KG1a or MOLM14 AML cell lines were co-cultured with HD-PBMC at ratio 5:1 in presence of ICT01 or isotype control (0.1 μg/mL). After 6 hrs, indicated concentrations of ABT-737, Navitoclax or MIK665 were added to the culture. A) Relative numbers of live KG1a cells (Mean±SEM) after 2 days of co-culture with HD-PBMC in presence of ICT01 (black) or its isotype control hIgG1S (light grey) and treatment with indicated concentration of ABT-737. B) Relative numbers of live KG1a cells (Mean±SEM) after 2 days of co-culture with HD-PBMC in presence of ICT01 (black) or its isotype control hIgG1S (light grey) and treatment with indicated concentration of Navitoclax. C) Relative numbers of live MOLM14 cells (Mean±SEM) after 2 days of co-culture with HD-PBMC in presence of ICT01 (black) or its isotype control hIgG1S (light grey) and treatment with indicated concentration of MIK665. N=6 HD, each dot represents one healthy donor, * p<0.05, 2 way ANOVA.
The effect of Venetoclax and 5-Azacytidine on anti-BTN3A antibodies-induced killing of AML cell lines by Vγ9Vδ2 T cells was assessed by measuring the relative number of surviving target cells in a HD-PBMC-AML cell co-culture using flow cytometry.
Then, KG1a AML cells were stained with CellTrace CFSE Proliferation dye (ThermoFisher) to allow for specific detection by flow cytometry, counted, put into a co-culture with thawed HD-PBMC and treated with the anti-BTN3A mAbs ICT01 or m20.1 or their respective isotype controls (hIgG1S or mIgG1) in PBMC medium (RPMI 1640 Medium supplemented with 10% Fetal Bovine Serum (FBS) and 1 mM Sodium Pyruvate). On day one of culture, increasing concentrations of Venetoclax (0-0.4 μM), 5-Azacytidine (0-0.4 μM) or the combination were added. Cells were harvested on day 3 of co-culture, centrifuged at 1800 rpm for 5 minutes and then incubated 10 minutes at room temperature (RT) with 25 μl of FcR blocking reagent (Miltenyi Biotec) before adding 25 μL of the following antibody mix prepared in PBS+2% FBS+2 mM EDTA (FACS buffer): anti-CD56-BV421, CD19-BV421, CD14-BV785, Tyb-PE and CD3-AF700 antibodies for the identification of immune subsets, and a viability marker (LIVE/DEAD™ Fixable Dead Cell Stain) was added to distinguish live and dead cells. Cells were incubated 20 minutes at room temperature, washed once in FACS buffer and once in AnnexinV staining buffer. An AnnexinV-APC probe mixed with CountBright Absolute Counting Beads (Invitrogen) was added to determine apoptosis and relative cell numbers, followed by 15 minutes incubation at RT before flow cytometry analysis. […]

## Nc1ncn([C@@H]2O[C@H](CO)[C@@H](O)[C@H]2O)c(=O)n1 [5-Azacytidine, 4-amino-1-[(2R,3R,4S,5R)3,4-dihydroxy-5-(hydroxymethyl)oxolan-2-yl]-1,3,5-triazin-2-one]
hIgG1S conditions, co-culture with HD-PBMC, day 3
  effect on KG1a survival: no effect
mIgG1 conditions, HD-PBMC ratio 5:1, 48 hrs
  effect on KG1a survival: no effect
  effect on Vγ9Vδ2 T cell killing activity compared to hIgG1S conditions: slight increasing effects

## CC1(C)CCC(CN2CCN(c3ccc(C(=O)NS(=O)(=O)c4ccc(NCC5CCOCC5)c([N+](=O)[O-])c4)c(Oc4cnc5[nH]ccc5c4)c3)CC2)=C(c2ccc(Cl)cc2)C1 [Venetoclax, 4-[4-[[2-(4-chlorophenyl)-4,4-dimethylcyclohexen-1-yl]methyl]piperazin-1-yl]-N-[3-nitro-4-(oxan-4-ylmethylamino)phenyl]sulfonyl-2-(1H-pyrrolo[2,3-b]pyridin-5-yloxy)benzamide]
hIgG1S-treatment conditions, highest concentration, co-culture with HD-PBMC, day 3
  reduction of KG1a relative numbers: ~ 28%
mIgG1 conditions, Venetoclax 0.1 μM alone or combined with 0.4 μM 5-Azacytidine, HD-PBMC ratio 5:1, 48 hrs
  reduction of KG1a relative numbers: 41%
  effect on Vγ9Vδ2 T cell killing activity compared to hIgG1S conditions: slight increasing effects

## ICT01: humanized BTN3A activating antibody of mAb 7.2, heavy chain SEQ ID NO: 4, light chain SEQ ID NO: 6, silent IgG1 L247F/L248E/P350S
3 days co-culture with HD-PBMC (E:T ratio 25:1), large variability within PBMC donors
  average reduction of live KG1a cell numbers compared to hIgG1S conditions: ~ 20%
ICT01 0.1 μg/mL, HD-PBMC ratio 5:1, 2 days (FIG. 8a)
  KG1a cell death as compared to control condition: ~ 21%
